Target: T1, BTK protein (Homo sapiens, UniProt Q06187)
T1 construct: endogenous in cells; host or cells: TMD-8 cells
Assay: Measurement of BTK protein degradation ability in TMD-8 cells (Western blotting)
Format: cell-based
Conditions: harvested after 24 hours; for BTK degradation (%) 1 nM: compound 1 nM; for BTK degradation (%) 10 nM: compound 10 nM; for BTK degradation (%) 100 nM: compound 100 nM
Procedure, shortened: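 TMD-8 cells (1×10^6/mL) were treated for 24 h with compound at 0.1, 1, 10 μM or 0.0001–0.1 μM, with DMSO as vehicle control. RIPA lysates were normalized by BCA assay. BTK was detected by Western blot with anti-BTK, using GAPDH or β-actin as loading controls, and imaged on LI-COR Odyssey.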

T1 sequence (Q06187 whole entry): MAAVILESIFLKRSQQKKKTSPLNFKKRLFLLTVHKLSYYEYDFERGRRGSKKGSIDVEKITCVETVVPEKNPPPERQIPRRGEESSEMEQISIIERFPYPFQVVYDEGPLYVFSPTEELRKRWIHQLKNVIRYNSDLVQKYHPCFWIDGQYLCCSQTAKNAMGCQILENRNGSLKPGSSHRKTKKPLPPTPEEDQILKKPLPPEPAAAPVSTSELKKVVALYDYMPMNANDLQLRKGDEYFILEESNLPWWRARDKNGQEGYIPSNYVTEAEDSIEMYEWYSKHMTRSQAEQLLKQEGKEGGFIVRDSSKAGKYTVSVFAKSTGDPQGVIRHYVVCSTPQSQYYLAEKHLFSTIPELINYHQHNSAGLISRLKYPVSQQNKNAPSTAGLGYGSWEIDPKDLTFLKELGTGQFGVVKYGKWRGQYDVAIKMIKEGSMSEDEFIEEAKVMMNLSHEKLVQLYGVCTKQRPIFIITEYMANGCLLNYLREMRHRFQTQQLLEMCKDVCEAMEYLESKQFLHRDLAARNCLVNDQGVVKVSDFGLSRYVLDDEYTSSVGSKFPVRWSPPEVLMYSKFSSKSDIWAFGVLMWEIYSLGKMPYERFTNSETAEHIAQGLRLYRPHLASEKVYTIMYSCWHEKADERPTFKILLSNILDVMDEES

SMILES	BTK degradation (%) 1 nM [%]	BTK degradation (%) 10 nM [%]	BTK degradation (%) 100 nM [%]
Cc1cc(-c2ccnc(Nc3ccc(C4CCN(CC5CCN(c6cccc(N7CCC(=O)NC7=O)c6)CC5)CC4)cc3)n2)ccc1CNC(=O)c1cnn(C(C)(C)C)c1 [Example 85, 1-(tert-butyl)-N-(4-(2-((4-(1-((1-(3-(2,4-dioxotetrahydropyrimidin-1 (2H)-yl)phenyl)piperidin-4-yl)methyl)piperidin-4-yl)phenyl)amino)pyrimidin-4-yl)-2-methylbenzyl)-1H-pyrazole-4-carboxamide]	45.5	93.5	98.5
Cc1cc(-c2ccnc(Nc3ccc(N4CCN(CC5CCN(c6ccc7c(n6)CN(C6CCC(=O)NC6=O)C7=O)CC5)CC4)cc3)n2)ccc1CNC(=O)N1CC(OC(C)C)C1 (stereo not drawn) [Example 10, N-(4-(2-((4-(4-((1-(6-(2,6-dioxopiperidin-3-yl)-5-oxo-6,7-dihydro-5H-pyrrolo[3,4-b]pyridin-2-yl)piperidin-4-yl)methyl)piperazin-1-yl)phenyl)amino)pyrimidin-4-yl)-2-methylbenzyl)-3-isopropoxyazetidine-1-carboxamide]	56	94.5	98.5
Cc1cc(-c2ccnc(Nc3ccc(N4CCN(CC5CCN(c6ccc7c(c6)C(=O)N(C6CCC(=O)NC6=O)C7=O)CC5)CC4)cc3)n2)ccc1COC(=O)N1CC(OC(C)C)C1 (stereo not drawn) [Example 30, 4-(2-((4-(4-((1-(2-(2,6-dioxopiperidin-3-yl)-1,3-dioxoisoindolin-5-yl)piperidin-4-yl)methyl)piperazin-1-yl)phenyl)amino)pyrimidin-4-yl)-2-methylbenzyl 3-isopropoxyazetidine-1-carboxylate]	−1	20.5	91.5
Cc1cc(-c2ccnc(Nc3ccc(N4CCN(CC5CN(c6ccc7c(c6)C(=O)N(C6CCC(=O)NC6=O)C7=O)C5)CC4)cc3)n2)ccc1CNC(=O)c1cnn(C(C)(C)C)c1 (stereo not drawn) [Example 31, 1-(tert-butyl)-N-(4-(2-((4-(4-((1-(2-(2,6-dioxopiperidin-3-yl)-1,3-dioxoisoindolin-5-yl)azetidin-3-yl)methyl)piperazin-1-yl)phenyl)amino)pyrimidin-4-yl)-2-methylbenzyl)-1H-pyrazole-4-carboxamide]	61.5	94.5	98.5
Cc1cc(-c2ccnc(Nc3ccc(C4CCN(C5CCN(c6ccc7c(c6)C(=O)N(C6CCC(=O)NC6=O)C7=O)CC5)CC4)cc3)n2)ccc1CNC(=O)N1CC(OC(C)C)C1 (stereo not drawn) [Example 110, N-(4-(2-((4-(1′-(2-(2,6-dioxopiperidin-3-yl)-1,3-dioxoisoindolin-5-yl)-[1,4′-bipiperidin]-4-yl)phenyl)amino)pyrimidin-4-yl)-2-methylbenzyl)-3-isopropoxyazetidine-1-carboxamide]	28.0	92.0	99.5
Cc1cc(-c2ccnc(Nc3ccc(N4CCC(CN5CCC(c6ccc(NC7CCC(=O)NC7=O)cc6)CC5)CC4)nc3)n2)ccc1CNC(=O)N1CC(OC(C)C)C1 (stereo not drawn) [Example 145, N-(4-(2-((6-(4-((4-(4-((2,6-dioxopiperidin-3-yl)amino)phenyl)piperidin-1-yl)methyl)piperidin-1-yl)pyridin-3-yl)amino)pyrimidin-4-yl)-2-methylbenzyl)-3-isopropoxyazetidine-1-carboxamide]	27.5	85.0	99.0
Cc1c(NC(=O)N2CC(OC(C)C)C2)cc(F)cc1-c1ccnc(Nc2ccc(N3CCN(CC4CCN(c5ccc6c(c5)C(=O)N(C5CCC(=O)NC5=O)C6=O)CC4)CC3)cc2)n1 (stereo not drawn) [Example 23, N-(3-(2-((4-(4-((1-(2-(2,6-dioxopiperidin-3-yl)-1,3-dioxoisoindolin-5-yl)piperidin-4-yl)methyl)piperazin-1-yl)phenyl)amino)pyrimidin-4-yl)-5-fluoro-2-methylphenyl)-3-isopropoxyazetidine-1-carboxamide]	–	72	91.5
Cc1cc(-c2ccnc(Nc3ccc(N4CCC(CN5CCC(c6ccc(OC7CCC(=O)NC7=O)cn6)CC5)CC4)cc3)n2)ccc1CNC(=O)N1CC(OC(C)C)C1 (stereo not drawn) [Example 124, N-(4-(2-((4-(4-((4-(5-((2,6-dioxopiperidin-3-yl)oxy)pyridin-2-yl)piperidin-1-yl)methyl)piperidin-1-yl)phenyl)amino)pyrimidin-4-yl)-2-methylbenzyl)-3-isopropoxyazetidine-1-carboxamide]	−1.3	63.7	97.7
Cc1cc(-c2ccnc(Nc3ccc(N4CCN(CC5CCN(c6ccc7c(c6)C(=O)N(C6CCC(=O)NC6=O)C7=O)CC5)CC4)nc3)n2)ccc1CNC(=O)N1CC(OC(C)C)C1 (stereo not drawn) [Example 17, N-(4-(2-((6-(4-((1-(2-(2,6-dioxopiperidin-3-yl)-1,3-dioxoisoindolin-5-yl)piperidin-4-yl)methyl)piperazin-1-yl)pyridin-3-yl)amino)pyrimidin-4-yl)-2-methylbenzyl)-3-isopropoxyazetidine-1-carboxamide]	37	91	98
Cc1c(NC(=O)N2CC(OC(C)C)C2)cc(F)cc1-c1ccnc(Nc2ccc3c(c2)CN(CC2CCN(c4ccc5c(c4)C(=O)N(C4CCC(=O)NC4=O)C5=O)CC2)CC3)n1 (stereo not drawn) [Example 4, N-(3-(2-((2-((1-(2-(2,6-dioxopiperidin-3-yl)-1,3-dioxoisoindolin-5-yl)piperidin-4-yl)methyl)-1,2,3,4-tetrahydroisoquinolin-7-yl)amino)pyrimidin-4-yl)-5-fluoro-2-methylphenyl)-3-isopropoxyazetidine-1-carboxamide]	–	−3.5	29
Cc1cc(-c2ccnc(Nc3ccc(N4CCN(CC5CN(C(=O)c6cccc(NC7CCC(=O)NC7=O)c6)C5)CC4)cc3)n2)ccc1CNC(=O)N1CC(OC(C)C)C1 (stereo not drawn) [Example 88, N-(4-(2-((4-(4-((1-(3-((2,6-dioxopiperidin-3-yl)amino)benzoyl)azetidin-3-yl)methyl)piperazin-1-yl)phenyl)amino)pyrimidin-4-yl)-2-methylbenzyl)-3-isopropoxyazetidine-1-carboxamide]	35.5	94.5	98.5
Cc1cc(-c2ccnc(Nc3ccc(N4CCN(CC5CCN(C(=O)c6cccc(NC7CCC(=O)NC7=O)c6)CC5)CC4)cc3)n2)ccc1CNC(=O)N1CC(OC(C)C)C1 (stereo not drawn) [Example 87, N-(4-(2-((4-(4-((1-(3-((2,6-dioxopiperidin-3-yl)amino)benzoyl)piperidin-4-yl)methyl)piperazin-1-yl)phenyl)amino)pyrimidin-4-yl)-2-methylbenzyl)-3-isopropoxyazetidine-1-carboxamide]	36.5	94.5	98.5
Cc1cc(-c2ccnc(Nc3ccc(N4CCN(CC5CCN(c6ccc7c(c6)C(=O)N(C6CCC(=O)NC6=O)C7=O)CC5)CC4)cc3)n2)ccc1CNC(=O)c1cn(C(C)(C)C)nn1 (stereo not drawn) [Example 9, 1-(tert-butyl)-N-(4-(2-((4-(4-((1-(2-(2,6-dioxopiperidin-3-yl)-1,3-dioxoisoindolin-5-yl)piperidin-4-yl)methyl)piperazin-1-yl)phenyl)amino)pyrimidin-4-yl)-2-methylbenzyl)-1H-1,2,3-triazole-4-carboxamide]	–	76.5	96.5
Cc1cc(-c2ccnc(Nc3ccc(N4CCN(CC5CCN(c6cccc(N7CCC(=O)NC7=O)c6)CC5)CC4)nc3)n2)ccc1CNC(=O)c1cnn(C(C)C)c1 [Example 82, N-(4-(2-((6-(4-((1-(3-(2,4-dioxotetrahydropyrimidin-1 (2H)-yl)phenyl)piperidin-4-yl)methyl)piperazin-1-yl)pyridin-3-yl)amino)pyrimidin-4-yl)-2-methylbenzyl)-1-isopropyl-1H-pyrazole-4-carboxamide]	32.0	87.5	99.5
Cc1cc(-c2ccnc(Nc3ccc(N4CCC(CN5CCC(c6ccc(OC7CCC(=O)NC7=O)cc6)CC5)CC4)nc3)n2)ccc1CNC(=O)N1CC(OC(C)C)C1 (stereo not drawn) [Example 144, N-(4-(2-((6-(4-((4-(4-((2,6-dioxopiperidin-3-yl)oxy)phenyl)piperidin-1-yl)methyl)piperidin-1-yl)pyridin-3-yl)amino)pyrimidin-4-yl)-2-methylbenzyl)-3-isopropoxyazetidine-1-carboxamide]	28.0	77.0	98.5
Cc1cc(-c2ccnc(Nc3ccc(N4CC(CN5CCN(c6ccc7c(c6)C(=O)N(C6CCC(=O)NC6=O)C7=O)CC5)C4)cc3)n2)ccc1CNC(=O)N1CC(OC(C)C)C1 (stereo not drawn) [Example 112, N-(4-(2-((4-(3-((4-(2-(2,6-dioxopiperidin-3-yl)-1,3-dioxoisoindolin-5-yl)piperazin-1-yl)methyl)azetidin-1-yl)phenyl)amino)pyrimidin-4-yl)-2-methylbenzyl)-3-isopropoxyazetidine-1-carboxamide]	44.0	97.0	100.0
Cc1c(NC(=O)N2CC(OC(C)C)C2)cc(F)cc1-c1ccnc(Nc2ccc(N3CCN(CC4CCN(c5ccc6c(n5)CN(C5CCC(=O)NC5=O)C6=O)CC4)CC3)cc2)n1 (stereo not drawn) [Example 26, N-(3-(2-((4-(4-((1-(6-(2,6-dioxopiperidin-3-yl)-5-oxo-6,7-dihydro-5H-pyrrolo[3,4-b]pyridin-2-yl)piperidin-4-yl)methyl)piperazin-1-yl)phenyl)amino)pyrimidin-4-yl)-5-fluoro-2-methylphenyl)-3-isopropoxyazetidine-1-carboxamide]	15.5	76	93

From patent US20250041429A1, “COMPOUND HAVING BTK PROTEIN DEGRADATION ACTIVITY, AND MEDICAL USES THEREOF” (UBIX THERAPEUTICS, INC., priority 2021, published 2025)
